The text below walks through data of ChEMBL document CHEMBL4715766, “Systemic structure-activity relationship study of phenyl polyyne diols as potential chemopreventive agents” (Bioorg Med Chem Lett, 2016).

Assay [1] in a line: Chemopreventive index, ratio of IC50 for mouse Hepa-1c1c7 cells to drug level required to double NADPH:quinone reductase activity in mouse Hepa-1c1c7 cells.
Assay [2] in a line: Cytotoxicity against mouse Hepa1c1c7 cells. The note with it: Hepa-1c1c7. The assay is classed as cell-based.
For assay [3], the target named is NAD(P)H dehydrogenase [quinone] 1 (Mus musculus) (UniProt Q64669). The conditions noted are these: Hepa1c1c7, filed as activator.
Description: Induction of quinone reductase activity in mouse Hepa1c1c7 cells

Bounds are passed on as bounds.

NAD(P)H dehydrogenase [quinone] 1 (Mus musculus), sequence (Q64669 whole entry): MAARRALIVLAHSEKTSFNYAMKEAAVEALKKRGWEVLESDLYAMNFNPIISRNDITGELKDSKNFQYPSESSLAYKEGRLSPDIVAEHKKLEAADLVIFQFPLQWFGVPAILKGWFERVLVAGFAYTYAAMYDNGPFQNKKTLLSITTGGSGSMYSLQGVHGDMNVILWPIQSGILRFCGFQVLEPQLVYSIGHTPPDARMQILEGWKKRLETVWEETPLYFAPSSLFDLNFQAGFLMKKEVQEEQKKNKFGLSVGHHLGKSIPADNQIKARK

Usually IC50 stands for the concentration at which inhibition is half-maximal. For the compound `CCCCCC(O)C#CC#CC(O)c1ccc2c(c1)OCO2` (centres undefined), in assay [1], the Ratio is given as greater than 28.2. In assay [2], the half-inhibitory concentration (IC50) was greater than 50 µM.

In the case of `C[S+]([O-])CCCCN=C=S` (centres undefined) [SULFORAPHANE], the CD in assay [3] was found to be 0.5 µM. In addition, the Ratio in assay [1] is 29.5.
